This is an account of results in patent US12605455B2, “CAR peptide for improved coronavirus survival” (Vascular Biosciences, priority 2020, dated 2026).

Series [1] can be described thus: Safety pharmacology and TID 10-day rising-dose and multiple-dose tolerance study of CAR in rats. Format: in vivo.
The nature of the next series: Irwin test in rats. Format: in vivo.
The conditions of series [2]: CAR 3 mg/kg i.v. for 14 days.
Series [3] is described as follows: Two-month repeat administration of CAR to pigs. Format: in vivo. The conditions noted are these: IV 3 mg/kg.
Another series deals with hypertensive lungs. The conditions noted are these: isolated perfused lung experiments (Toba et al. 2014); cited from earlier work.
Series [4] relates to SARS-CoV2. The class given is in vivo, K18-hACE2 transgenic mice. The note with it: HCT 0.2 mg/kg/dose iv every 12 hours: free, liposome encapsulated or CAR-liposome.
Series [5] concerns SARS-CoV2. The class given is in vivo, K18-hACE2 transgenic mice. The note with it: hydrocortisone 0.2 mg/kg ip every 6 hours, alone or with CAR 8 mg/kg ip.
The subject of a further series is LPS-induced endotoxemia. Put plainly: Survival after LPS-endotoxemia, hydrocortisone with or without CAR. The class given is in vivo, mice. The conditions noted are these: for survival rate 48 hours after LPS: C57BL/6 male mice, LPS 20 mg/kg IP. On the procedure:
10-week-old C57BL/6 male mice were given an intraperitoneal (IP) injection of Escherichia coli 055:B5 LPS 20 mg/kg. Mice were injected i.p. with 20 mg/kg lipopolysaccharide (LPS). Five different treatments were initiated: saline only group (Untreated, n=31); CAR peptide-alone administration 20 mg/kg ([…]) (CAR alone, n=20); hydrocortisone 0.2 mg/kg or 10 mg/kg Low-HCT or High-HCT, n=20, 28 respectively); and CAR 20 mg/kg co-administered with hydrocortisone 0.2 mg/kg (Low HCT+CAR, n=20). Hydrocortisone and/or CAR peptide were injected intraperitoneally at 3, 12 and 24 hours after LPS administration.

Series [6] concerns SARS-CoV2. Format: in vivo, K18-hACE2 transgenic mice. The note with it: HCT 0.2 mg/kg/dose via IT installation every 24 hours: free, liposome encapsulated or CAR-liposome encapsulated.
The subject of series [7] is endothelium and endothelial glycocalyx of kidney, lung and liver. The series is described as follows: Ultrastructural analysis (scanning electron microscopy) of endothelium and endothelial glycocalyx after LPS. The note with it: mice 48 hours after LPS; hydrocortisone 0.2 mg/kg with or without CAR. The class given is in vivo. How it is done:
Capillaries of the kidney are fenestrated capillaries which have small holes at endothelial cells. The destruction of this structure was 48 hours after LPS injection. Then, the endothelial wall became edematous and there was deposited fibrin on it. Capillaries of the lung are continuous type of capillaries. Although the vascular endothelium of the lung is thinner at the edges of the nucleus, edema occurred and vascular endothelial structure was impaired 48 hours after LPS injection. Capillaries of the liver are sinusoids which have a lot of large […] gap in normal capillaries. 48 hours after LPS administration, these structures have already broken the edematous of the vascular endothelium and deposited fibrin.
The endothelial glycocalyx (GCX) of the apical endothelial surface of each organ can by visualized using scanning electron microscopy (SEM) to assess GCX appearance and structure. GCX was largely denuded in the untreated sepsis group but the GXX damage was attenuated when CAR is co-administered with low-HCT.
Mice were sacrificed at 48 hours after LPS administration, and kidney, lung and liver were obtained to create frozen fracture freeze-dried samples to detect endothelial changes with electron microscopy. The specimens were examined under a scanning electron microscope (S-4500, Hitachi). […]

For the next series, the system named is CLP sepsis. Put plainly: Cecal ligation and puncture (2CLP) rat model of sepsis, hydrocortisone with or without CAR. Format: in vivo, rats. How it is done: At 40 hours, 4 of the 5 rats in the HCT+CAR group survived while none of the rats in either the HCT group nor the sepsis group survived for 40 hours (n=5 in each group) (Log-rank P=0.008).
8-10 week-old male Sprague Dawley rats were exposed to CLP. Rats were randomized (n=5/group) to saline, hydrocortisone (0.2 mg/kg IV), or CAR (3 mg/kg IV)+HCT. Treatments were initiated 12 hours after surgery, and given every 12 hours afterwards until death, for a maximum of 5 days. Rats were treated with fluid resuscitation but not with antibiotics in this model. Survival was highest in the CAR+HCT group (FIG. 6) (Log-rank P=0.008) and the median Ang2/Ang1 ratio was lower in CAR+HCT than the hydrocortisone group (0.60 vs 1.69, p=0.06).

The subject of series [8] is endothelium of lung, liver and kidney. Put plainly: Scanning electron micrographs of lung, liver and kidney, sivelestat with or without CAR in septic animals. Format: in vivo. The source says: Scanning electron micrographs of lung tissue from control, sivelestat alone, and CAR+sivelestat treated animals. The pulmonary vasculature is shown in the enlargement.
Scanning electron micrographs of liver tissue from control, sivelestat alone, and CAR+sivelestat treated animals. The fenestrated sinusoidal endothelium with clusters of fenestrations, or ‘sieve plates,’ are visible in the control liver vasculature.
Scanning electron micrographs of kidney tissue from control, sivelestat alone, and CAR+sivelestat treated animals. In the enlargement shown of the […] vasculature, the fenestrated glomerular endothelium surrounded by podocyte foot processes (red arrow). […] This is presumably due to activation of neutrophil elastase which leads to proteolytic degradation of critical extracellular matrix proteins. […] The activity of sivelestat's anti-elastase appears to be efficiently boosted by CAR's selective homing to the injured endothelial glycocalyx in the kidney.
(§1) Thus, CAR could potentially adjuvant efficacy of other drugs against viral sepsis, including CAR in combination with sivelstat, as shown at lung (FIG. 9), liver (FIG. 10) and kidney (FIG. 11) samples.

A further series concerns LPS model of sepsis. The series is described as follows: LPS model of sepsis, survival with sivelestat with or without CAR. Format: in vivo.
From the text: as §1

Setting [9] is: sivelestat 0.5 mg/kg or sivelestat 0.5 mg/kg + CAR.

Read-outs that look alike come from different tables or passages of the source. Bridge positions count the residues as written; N and C are the ends. Peptide text beside a SMILES is read from it.

Take `C[C@@H]1NC(=O)[C@@H](N)CSSC[C@@H](C(=O)O)NC(=O)[C@H](CC(=O)O)NC(=O)[C@H](CCCCN)NC(=O)[C@H](CC(N)=O)NC(=O)[C@H](CCCCN)NC(=O)[C@H](CO)NC(=O)[C@H](CCCNC(=N)N)NC1=O` [CAR, CARSKNKDC] (H-CARSKNKDC-OH; disulfide 1-9; N-terminus and C-terminus assumed): in series [1] (TID 10-day rising-dose and multiple-dose, up to highest dose 20 mg/kg IV), the “mortality, clinical observations, hematology, coagulation, clinical chemistry” value was “no mortality, adverse clinical observations, and no aberrations in hematology, coagulation or clinical chemistry”. Further, in series [1] (up to the highest levels of CAR tested), the “adverse effects on vital physiological systems (safety pharmacology)” value was “no adverse effects”. For the same compound, in “Irwin test in rats”, the “adverse effects on behavior and physiological function” value is “no adverse effects”. The Creatinine in series [2] (healthy adult Sprague-Dawley rats) came to 0.45 ± 0.02 mg/dL. In [2] (healthy rats), this compound returned an ALP of 170 ± 18 U/L, an AST of 141 ± 31 U/L, a BUN of 17 ± 1 mg/dL and a Glucose of 213 ± 5. Besides, in series [2] (healthy rats), the Hb is on record as 12.8 ± 0.2 g/dL; the Tbili is 0.10 ± 0.04 mg/dL; the Wbc is recorded as 4.0 ± 0.7 ×1000/μL; the “impact on blood renal function, hepatic function, hematologic tests and glucose hemostasis” value is reported as “no impact”. For the same compound, in [3], the “immunological effects or signs of toxicity” value was “no immunological effects or signs of toxicity”. Moreover, the “concentration of the co-administered drug in the diseased lung” value in the series on hypertensive lungs is given as “doubling”.

Regarding `C[C@]12CCC(=O)C=C1CC[C@@H]1[C@@H]2[C@@H](O)C[C@@]2(C)[C@H]1CC[C@]2(O)C(=O)CO` [HCT, hydrocortisone], the “survival at 7 dpi” value with SARS-CoV2 [4], with SARS-CoV2 [5] and in the series with SARS-CoV2 [6] was “some improvements in survival” throughout. Moreover, the “survival rate 48 hours after LPS” value in the series on LPS-induced endotoxemia (hydrocortisone 0.2 mg/kg alone or with CAR 20 mg/kg, IP at 3, 12 and 24 hours) was 30%; with LPS-induced endotoxemia (hydrocortisone 10 mg/kg (High-HCT) IP at 3, 12 and 24 hours) it was 57%. Besides, in the series on LPS-induced endotoxemia (CAR alone 20 mg/kg, hydrocortisone 0.2 mg/kg (Low-HCT)), the “survival difference versus untreated sepsis 48 hours after LPS” value is reported as “no significant survival difference”. The “endothelial ultrastructure of kidney, lung and liver capillaries” value in series [7] is reported as “no beneficial effect for septic endothelial disorders”. Also, in the series on CLP sepsis (2CLP rats, n=5 in each group, hydrocortisone 0.2 mg/kg IV with or without CAR 3 mg/kg IV every 12 hours from 12 hours after surgery), the “rats surviving at 40 hours” value is listed as “none”. The hyperglycemia entry with CLP sepsis (CLP rats) is “hyperglycemia observed”. The “median Ang2/Ang1 ratio” value with CLP sepsis (CLP rats, p=0.06) is 1.69.

With `CC(C)(C)C(=O)Oc1ccc(S(=O)(=O)Nc2ccccc2C(=O)NCC(=O)O)cc1` [Sivelestat, sivelestat], in series [8], the “glomerular endothelium fenestrations, SEM kidney images” value was “fenestrations are absent and gross tissue damage is apparent”; the “liver sinusoidal endothelium sieve plates, SEM liver images” value is on record as “not able to prevent defenestration of sieve plates”; the “pulmonary arteriole endothelium, SEM lung images” value was “did not prevent degradation of the continuous pulmonary arteriole endothelium”. In addition, the “Survival Rate (%) 12 h” value in the series with LPS model of sepsis (sivelestat 0.5 mg/kg (n=20) or sivelestat 0.5 mg/kg + CAR (n=18)) is given as 100%. In addition, in the series with LPS model of sepsis (setting [9]), the “Survival Rate (%) 24 h” value was found to be 85%, the “Survival Rate (%) 36 h” value is listed as 60% and the “Survival Rate (%) 48 h” value came out at 50%.
